Assay results reported in patent US10167300B2, “Metalloenzyme inhibitor compounds as fungicides” (priority 2014, dated 2019).
Where two headings read alike, the source gives them in different places.

Assay: Type B (low volume, EC formulation, track sprayer 200 L/ha) assay, leaf blotch of wheat, SEPTTR field isolate (FI SEPTTR)
Assay type: in vivo, Mycosphaerella graminicola on wheat plants (variety Yuma)
Settings: Zymoseptoria tritici, 72 h
Procedure: Example A: Evaluation of Fungicidal Activity: Leaf Blotch of Wheat (Mycosphaerella graminicola; Anamorph: Septoria tritici; Bayer Code SEPTTR)
For Type A assays, technical grades of the experimental fungicides in Table 4 below were dissolved in acetone, and then mixed with nine volumes of water containing 110 ppm Triton X-100. The fungicide solutions were applied onto wheat seedlings using an automated booth sprayer. For Type B assays, emulsifiable concentrate (EC) formulations of technical grades of the experimental fungicides in Table 4 below were prepared at 10% (w/v), and then mixed with 150 volumes of 0.1% Trycol 5941. These solutions were applied onto wheat seedlings using an automated track sprayer at 200 L/ha. All sprayed plants were allowed to air dry prior to further handling.
Wheat plants (variety Yuma) were grown from seed in a greenhouse in 50% mineral soil/50% soil-less Metro mix until the first leaf was fully emerged, with 7-10 seedlings per pot. Prior to or after application of experimental fungicides, plants were inoculated either with spores of a standard laboratory SEPTTR isolate (SI SEPTTR) or with spores from a SEPTTR field isolate collected from Wellsbourne, England in 2012 (FI SEPTTR). After inoculation the plants were kept for 3 days at 20° C. in 100% relative humidity (one day in a dark dew chamber followed by two days in a lighted dew chamber). Plants were then transferred to a 20° C. greenhouse for disease development. When disease symptoms were fully expressed on untreated plants, infection levels on treated plants were assessed on a scale of 0 to 100 percent disease severity. Percent disease control was calculated using the ratio of disease severity on treated plants relative to untreated plants.

[1] = SEPTTR field isolate, low volume Type B assay, 100 g/ha, 3 Day Curative, wheat leaf blotch, read-out: Disease Control, FI SEPTTR Type B Assay (100 g/ha) 3 DC
[2] = SEPTTR field isolate, low volume Type B assay, 100 g/ha, 3 Day Protectant, wheat leaf blotch, read-out: Disease Control, FI SEPTTR Type B Assay (100 g/ha) 3 DP
[3] = field isolate, low volume EC, 100 g/ha, 3 Day Curative, wheat (Yuma), read-out: Disease Control, FI SEPTTR Type B Assay (100 g/ha) 3 DC
[4] = field isolate, low volume EC, 100 g/ha, 3 Day Protectant, wheat (Yuma), read-out: Disease Control, FI SEPTTR Type B Assay (100 g/ha) 3 DP

SMILES | pest or weed control at 100 g/ha [3] [%] | pest or weed control at 100 g/ha [4] [%] | further results
COc1cc(C(C)(C)C#N)ccc1-c1ccc(C(O)(c2cncnc2)C(C)(C)C)nc1 (stereo not drawn) [Compound 263] | – | – | pest or weed control at 100 g/ha [1]: 80 to 100%; pest or weed control at 100 g/ha [2]: 80 to 100%
COc1ncncc1C(O)(c1ccc(-c2ccc(OC(F)F)cc2)cn1)C(C)(C)C (stereo not drawn) [Compound 273] | – | – | pest or weed control at 100 g/ha [1]: < 40%; pest or weed control at 100 g/ha [2]: 80 to 100%
COc1ncncc1C(O)(c1ccc(-c2ccc(C(C)(F)F)cc2)cn1)C(C)(C)C (stereo not drawn) [Compound 246] | 60 to 79 | 80 to 100 | –
CC#CC(OC)(c1cncnc1)c1ccc(-c2ccc(OC(F)(F)F)cc2F)cn1 (stereo not drawn) [Compound 182] | < 40 | 60 to 79 | –
C#CCOC(c1cncnc1)(c1ccc(-c2ccc(OC(F)(F)F)cc2F)cn1)C(C)C (stereo not drawn) [Compound 191] | < 40 | 80 to 100 | –
CCOC(C)(c1cncnc1)c1ccc(-c2ccc(OC(F)(F)F)cc2)cn1 (stereo not drawn) [Compound 177] | < 40 | 60 to 79 | –
CCC(C#N)(CC)c1ccc(-c2ccc(C(O)(c3cncnc3)C(C)(C)C)nc2)c(C)c1 (stereo not drawn) [Compound 264] | – | – | pest or weed control at 100 g/ha [1]: 80 to 100%; pest or weed control at 100 g/ha [2]: 80 to 100%
COC(c1cncnc1)(c1ccc(-c2ccc(OC(F)(F)F)cc2F)cn1)C(C)(C)C (stereo not drawn) [Compound 211] | 80 to 100 | 80 to 100 | –
CC(C)(C)C(O)(c1cncnc1)c1ccc(-c2ccc(F)cc2F)cn1 (stereo not drawn) [Compound 164] | 80 to 100 | 80 to 100 | –
CC(C)(C)C(O)(c1cncnc1)c1ccc(-c2ccc(F)cc2Cl)cn1 (stereo not drawn) [Compound 166] | 80 to 100 | 80 to 100 | –
C#CCOC(c1cncnc1)(c1ccc(-c2ccc(OC(F)(F)F)cc2)cn1)C(C)(C)C (stereo not drawn) [Compound 197] | < 40 | 80 to 100 | –
C#CCOC(c1cncnc1)(c1ccc(-c2ccc(OC(F)(F)F)cc2)cn1)C1CC1 (stereo not drawn) [Compound 255] | < 40 | 60 to 79 | –
C#CCOC(CC)(c1cncnc1)c1ccc(-c2ccc(OC(F)(F)F)cc2F)cn1 (stereo not drawn) [Compound 238] | 60 to 79 | < 40 | –
CC(C)C(O)(c1cncnc1)c1ccc(-c2ccc(OC(F)(F)F)cc2F)cn1 (stereo not drawn) [Compound 230] | < 40 | 80 to 100 | –
Cc1cc(C(C)(C)C#N)cnc1-c1ccc(C(O)(c2cncnc2)C(C)(C)C)nc1 (stereo not drawn) [Compound 239] | 80 to 100 | 80 to 100 | –
CC(C)(C)C(O)(c1cncc(F)c1)c1ccc(-c2ccc(OC(F)(F)F)cc2)cn1 (stereo not drawn) [Compound 202] | 60 to 79 | 60 to 79 | –
Cc1cc(C(C)(C)C#N)cc(C)c1-c1ccc(C(O)(c2cncnc2)C(C)(C)C)nc1 (stereo not drawn) [Compound 252] | 80 to 100 | 80 to 100 | –
COC(c1cncnc1)(c1ccc(-c2ccc(OCC(F)(F)F)nc2)cn1)C(C)(C)C (stereo not drawn) [Compound 253] | 80 to 100 | 80 to 100 | –
COc1ncncc1C(O)(c1ccc(-c2ccc(C3(C#N)CC3)cc2F)cn1)C(C)(C)C (stereo not drawn) [Compound 233] | 80 to 100 | 80 to 100 | –
CCOC(CC)(c1cncnc1)c1ccc(-c2ccc(OC(F)(F)F)cc2F)cn1 (stereo not drawn) [Compound 190] | 60 to 79 | 40 to 59 | –
COc1ncncc1C(O)(c1ccc(-c2ccc(OC(F)(F)F)cc2F)cn1)C(C)(C)C (stereo not drawn) [Compound 187] | 80 to 100 | 80 to 100 | –
CC(C)(C)C(O)(c1ccc(-c2ccc(OC(F)(F)F)cc2F)cn1)c1cnccn1 (stereo not drawn) [Compound 271] | – | – | pest or weed control at 100 g/ha [1]: < 40%; pest or weed control at 100 g/ha [2]: 80 to 100%
C#CCOC(C#CC)(c1cncnc1)c1ccc(-c2ccc(OC(F)(F)F)cc2)cn1 (stereo not drawn) [Compound 270] | – | – | pest or weed control at 100 g/ha [1]: < 40%; pest or weed control at 100 g/ha [2]: 40 to 59%
CCOC(c1cncnc1)(c1ccc(-c2ccc(OC(F)(F)F)cc2)cn1)C(C)(C)C (stereo not drawn) [Compound 198] | < 40 | 80 to 100 | –

SMILES | pest or weed control at 100 g/ha [3] [%] | pest or weed control at 100 g/ha [4] [%] | further results
CC(C)(C)C(O)(c1ccc(-c2ccc(OC(F)(F)F)cn2)cn1)c1cnccn1 (stereo not drawn) [Compound 174] | 60 to 79 | 80 to 100 | –
CC(C)(C)C(O)(c1ccc(-c2ccc(C3(C#N)CC3)cc2)cn1)c1cnccn1 (stereo not drawn) [Compound 229] | 60 to 79 | 60 to 79 | –
CC(C)(C)C(O)(Cc1cncnc1)c1ccc(-c2ccc(OCC(F)(F)F)nc2)cn1 (stereo not drawn) [Compound 195] | < 40 | 40 to 59 | –
CC(C)(C#N)c1ccc(-c2ccc(C(O)(c3cncnc3)C(C)(C)C)nc2)c(Cl)c1 (stereo not drawn) [Compound 265] | – | – | pest or weed control at 100 g/ha [1]: 80 to 100%; pest or weed control at 100 g/ha [2]: 80 to 100%
CCc1cc(C(C)(C)C#N)ccc1-c1ccc(C(O)(c2cncnc2)C(C)(C)C)nc1 (stereo not drawn) [Compound 179] | 80 to 100 | 80 to 100 | –
COC(c1cncnc1)(c1ccc(-c2ccc(OC(F)(F)F)cc2F)cn1)C(C)C (stereo not drawn) [Compound 249] | 60 to 79 | 80 to 100 | –
COc1ncncc1C(O)(c1ccc(-c2ccc(C(C)(C)C#N)cc2)cn1)C(C)(C)C (stereo not drawn) [Compound 240] | 80 to 100 | 80 to 100 | –
CCOC(c1cncnc1)(c1ccc(-c2ccc(OC(F)(F)F)cc2F)cn1)C(C)C (stereo not drawn) [Compound 176] | < 40 | 60 to 79 | –
CCC(C#N)(CC)c1ccc(-c2ccc(C(O)(c3cncnc3)C(C)(C)C)nc2)c(F)c1 (stereo not drawn) [Compound 268] | – | – | pest or weed control at 100 g/ha [1]: 80 to 100%; pest or weed control at 100 g/ha [2]: 80 to 100%
CC(C)(C#N)c1ccc(-c2ccc(C(O)(c3cncnc3)C(C)(C)C)nc2)nc1 (stereo not drawn) [Compound 183] | 80 to 100 | 80 to 100 | –
CC(C)(C)C(O)(c1ccc(-c2ccc(OC(F)(F)F)cc2)cn1)c1cccnc1Cl (stereo not drawn) [Compound 235] | 60 to 79 | 80 to 100 | –
CC(C)(C)C(O)(Cc1cccnc1)c1ccc(-c2ccc(OCC(F)(F)F)nc2)cn1 (stereo not drawn) [Compound 234] | 40 to 59 | 60 to 79 | –
COC(c1cncnc1)(c1ccc(-c2ccc(OC(F)(F)F)cc2C)cn1)C(C)(C)C (stereo not drawn) [Compound 261] | – | – | pest or weed control at 100 g/ha [1]: 80 to 100%; pest or weed control at 100 g/ha [2]: 80 to 100%
CC#CC(O)(c1cncnc1)c1ccc(-c2ccc(OC(F)(F)F)cc2F)cn1 (stereo not drawn) [Compound 185] | < 40 | 80 to 100 | –
COC(c1cncnc1)(c1ccc(-c2ccc(OC(F)(F)F)cn2)cn1)C(C)(C)C (stereo not drawn) [Compound 173] | 80 to 100 | 80 to 100 | –
CC(C)(C)C(O)(c1ccc(-c2ccc(OCC(F)(F)F)nc2)cn1)c1cnccn1 (stereo not drawn) [Compound 180] | 60 to 79 | 40 to 59 | –
CC#CC(OCC)(c1cncnc1)c1ccc(-c2ccc(OC(F)(F)F)cc2F)cn1 (stereo not drawn) [Compound 204] | < 40 | 60 to 79 | –
C#CCOC(CC)(c1cncnc1)c1ccc(-c2ccc(OC(F)(F)F)cc2)cn1 (stereo not drawn) [Compound 260] | – | – | pest or weed control at 100 g/ha [1]: < 40%; pest or weed control at 100 g/ha [2]: 40 to 59%
CC(C)(C)C(O)(Cc1cncnc1)c1ccc(-c2ccc(SC(F)(F)F)cc2)cn1 (stereo not drawn) [Compound 219] | 40 to 59 | 60 to 79 | –
CC(C)(C#N)c1ccc(-c2ccc(C(O[Si](C)(C)C)(c3cncnc3)C(C)(C)C)nc2)cc1 (stereo not drawn) [Compound 259] | – | – | pest or weed control at 100 g/ha (read-out: Disease Control, FI SEPTTR Type B Assay (100 g/ha) 3 DC): 60 to 79%; pest or weed control at 100 g/ha (read-out: Disease Control, FI SEPTTR Type B Assay (100 g/ha) 3 DP): 80 to 100%
Cc1cc(C2(C#N)CCC2)ccc1-c1ccc(C(O)(c2cncnc2)C(C)(C)C)nc1 (stereo not drawn) [Compound 212] | 80 to 100 | 80 to 100 | –
Cc1cc(OC(F)(F)F)ccc1-c1ccc(C(O)(c2cnccn2)C(C)(C)C)nc1 (stereo not drawn) [Compound 224] | 40 to 59 | 60 to 79 | –
CC(O)(c1cncnc1)c1ccc(-c2ccc(OC(F)(F)F)cc2F)cn1 (stereo not drawn) [Compound 221] | < 40 | 40 to 59 | –
CC(C)(C)c1ccc(-c2ccc(C(O)(Cc3cncnc3)C(C)(C)C)nc2)cc1 (stereo not drawn) [Compound 181] | < 40 | 60 to 79 | –
